*1 amine or outer side, *2 acyl side, *3 side chain or, on linkers, in order; H or OH if unused. Where a SMILES comes first, the peptide text is derived from it. Bridges are numbered along the chain shown (N, C = ends). [ ]: non-standard residue; d: D form. The star is where a group is joined. ξ: configuration not given here. X14 = CC(C)[C@H](CC(=O)[C@H](Cc1ccccc1)N(C)[*:1])C(=O)[*:2]; X18 = NN([C@@H](Cc1cccc(Cl)c1)C(=O)[*:2])[*:1]; NMePhe(3-Cl) = CN[C@@H](Cc1cccc(Cl)c1)C(=O)O; NMeF = CN[C@@H](Cc1ccccc1)C(=O)O; NMeGABA = CN(CCCC(=O)[*:2])[*:1]; NMeI = CC[C@H](C)[C@H](NC)C(=O)O; NMeL = CN[C@@H](CC(C)C)C(=O)O; Propyl(2R-OH) = C[C@@H](O)C*; Butyl(3S-OH) = C[C@H](O)CC*; NMeV = CN[C@H](C(=O)O)C(C)C; NMeA = CN[C@@H](C)C(=O)O; Piperidide = C1CCN(*)CC1; NBuGly = CCCCNCC(=O)O; Propyl(3-OH) = OCCC*; ξS = NC(CO)C(=O)O; Sar = CNCC(=O)O; tBu = CC(C)(C)*
Test: in vitro
Settings: human, Caco-2, Caco-2 (cm/sec)

`CC[C@H](C)[C@H]1C(=O)N[C@@H](C(C)C)C(=O)N(C)CC(=O)N(C)[C@@H](CC(C)C)C(=O)N[C@H](C(=O)N2CCCCC2)CC(=O)N(C)[C@@H](C)C(=O)N[C@@H](COC[C@@H](C)O)C(=O)N(C)[C@@H](CC(C)C)C(=O)N(C)[C@@H](Cc2ccccc2)C(=O)N[C@@H](CC(C)C)C(=O)N(C)[C@@H](Cc2ccccc2)C(=O)N1C` [AP86] ([NMeA]S(Propyl(2R-OH))[NMeL][NMeF]L[NMeF][NMeI]V[Sar][NMeL]D-Piperidide; lactam N-11) and `CC[C@H](C)[C@@H]1NC(=O)[C@H](CC(C)C)N(C)C(=O)[C@H](COC[C@@H](C)O)NC(=O)[C@H](Cc2ccccc2)N(C)C(=O)CN(C)C(=O)C[C@@H](C(=O)N2CCCCC2)NC(=O)[C@H](CC(C)C)N(C)C(=O)[C@H](COC(C)(C)C)NC(=O)[C@H](CC(C)C)N(C)C(=O)[C@H](Cc2ccccc2)N(C)C(=O)CN(C)C1=O` [AP88] ([Sar][NMeF]S(Propyl(2R-OH))[NMeL]I[Sar][NMeF][NMeL]S(tBu)[NMeL]D-Piperidide; lactam N-11) are within 1.5-fold of each other in Papp: 3.7 ×10⁻⁶ cm/s for the first, 3.3 ×10⁻⁶ cm/s for the second.

Going from `CCCCN1CC(=O)N(C)[C@@H](Cc2ccccc2)C(=O)N(C)[C@@H](CC(C)C)C(=O)N[C@@H](COC(C)(C)C)C(=O)N(C)[C@@H](CC(C)C)C(=O)N[C@H](C(=O)N2CCCCC2)CC(=O)N(C)CC(=O)N(C)[C@@H](Cc2ccccc2)C(=O)N[C@@H](C(C)C)C(=O)N(C)[C@@H](CC(C)C)C(=O)N[C@@H](COC[C@@H](C)O)C1=O` [AP87] ([Sar][NMeF]V[NMeL]S(Propyl(2R-OH))[NBuGly][NMeF][NMeL]S(tBu)[NMeL]D-Piperidide; lactam N-11) to `CCCCN1CC(=O)N(C)[C@@H](CC(C)C)C(=O)N[C@@H](COC(C)(C)C)C(=O)N(C)[C@@H](Cc2ccccc2)C(=O)N(C)[C@@H](CC(C)C)C(=O)N[C@H](C(=O)N2CCCCC2)CC(=O)N[C@H](CC(C)C)C(=O)N(C)[C@@H](Cc2ccccc2)C(=O)N[C@@H](COCCCO)C(=O)N(C)[C@@H](CC(C)C)C(=O)N[C@@H]([C@@H](C)O)C1=O` [AP89] ([dL][NMeF]S(Propyl(3-OH))[NMeL]T[NBuGly][NMeL]S(tBu)[NMeF][NMeL]D-Piperidide; lactam N-11), the Papp falls from 1 ×10⁻⁶ cm/s to 0.12 ×10⁻⁶ cm/s (8.3-fold).

Going from `CC(C)C[C@@H]1NC(=O)[C@H](Cc2ccccc2)N(C)C(=O)[C@@H](C(C)C)NC(=O)C[C@@H](C(=O)N2CCCCC2)NC(=O)[C@H](CC(C)C)N(C)C(=O)[C@H](Cc2cccc(Cl)c2)N(C)C(=O)[C@H](COCCCO)NC(=O)[C@H](CC(C)C)N(C)C(=O)CN(C)C(=O)[C@H]([C@@H](C)O)NC(=O)[C@H](CC(C)C)N(C)C1=O` [AP90] ([dV][NMeF]L[NMeL]T[Sar][NMeL]S(Propyl(3-OH))[NMePhe(3-Cl)][NMeL]D-Piperidide; lactam N-11) to `CC(C)C[C@@H]1NC(=O)[C@H](Cc2ccccc2)N(C)C(=O)[C@@H](C(C)C)NC(=O)C[C@@H](C(=O)N2CCCCC2)NC(=O)[C@H](CC(C)C)N(C)C(=O)[C@H](Cc2cccc(Cl)c2)N(C)C(=O)[C@H](COCC[C@H](C)O)NC(=O)[C@H](CC(C)C)N(C)C(=O)CN(C)C(=O)[C@H]([C@@H](C)O)NC(=O)[C@H](CC(C)C)N(C)C1=O` [AP100] ([dV][NMeF]L[NMeL]T[Sar][NMeL]S(Butyl(3S-OH))[NMePhe(3-Cl)][NMeL]D-Piperidide; lactam N-11), the Papp falls from 3.3 ×10⁻⁶ cm/s to 0.55 ×10⁻⁶ cm/s (6-fold).

`CC(C)C[C@@H]1NC(=O)[C@H](Cc2cccc(Cl)c2)N(C)C(=O)[C@H](Cc2ccccc2)N(C)C(=O)[C@H](COCCCO)NC(=O)[C@H](CC(C)C)N(C)C(=O)CCCN(C)C(=O)C[C@@H](C(=O)N2CCCCC2)NC(=O)[C@H](CC(C)C)N(C)C(=O)[C@H](CC(C)C)N(C)C(=O)[C@H]([C@@H](C)O)NC(=O)[C@H](CC(C)C)N(C)C1=O` [AP91] ([NMeGABA][NMeL]S(Propyl(3-OH))[NMeF][NMePhe(3-Cl)]L[NMeL]T[NMeL][NMeL]D-Piperidide; lactam N-11) and `CC[C@H](C)[C@@H]1NC(=O)[C@H](CC(C)C)N(C)C(=O)CCCN(C)C(=O)C[C@@H](C(=O)N2CCCCC2)NC(=O)[C@H](CC(C)C)N(C)C(=O)[C@H](CC(C)C)N(C)C(=O)[C@H]([C@@H](C)O)NC(=O)[C@H](CC(C)C)N(C)C(=O)[C@H](COCCCO)NC(=O)[C@H](Cc2cccc(Cl)c2)N(C)C(=O)[C@H](Cc2ccccc2)N(C)C1=O` [AP92] ([NMeGABA][NMeL]I[NMeF][NMePhe(3-Cl)]S(Propyl(3-OH))[NMeL]T[NMeL][NMeL]D-Piperidide; lactam N-11) are within 1.5-fold of each other in Papp: 0.14 ×10⁻⁶ cm/s for the first, 0.18 ×10⁻⁶ cm/s for the second.

Going from `CCCCN1CC(=O)N(C)[C@@H](CC(C)C)C(=O)N[C@H](C(=O)N2CCCCC2)CC(=O)N(C)[C@@H](C(C)C)C(=O)N[C@@H](COCCCO)C(=O)N(C)[C@@H](CC(C)C)C(=O)N(C)[C@@H](Cc2ccccc2)C(=O)C[C@@H](C(C)C)C(=O)N(C)[C@@H](Cc2ccccc2)C(=O)N(C)[C@@H](CC(C)C)C(=O)N[C@@H]([C@@H](C)O)C1=O` [AP93] ([NMeV]S(Propyl(3-OH))[NMeL][X14][NMeF][NMeL]T[NBuGly][NMeL]D-Piperidide; lactam N-10) to `CC(C)C[C@@H]1NC(=O)[C@H](CC(C)C)N(C)C(=O)C[C@@H](C(=O)N2CCCCC2)NC(=O)[C@H](CC(C)C)N(C)C(=O)CN(C)C(=O)[C@H]([C@@H](C)O)NC(=O)[C@H](CC(C)C)N(C)C(=O)[C@H](Cc2ccccc2)N(C)C(=O)[C@H](COCCCO)NC(=O)[C@H](Cc2ccccc2)N(C)C(=O)[C@H](CC(C)C)N(C)C1=O` [AP94] ([NMeL]L[NMeL][NMeF]S(Propyl(3-OH))[NMeF][NMeL]T[Sar][NMeL]D-Piperidide; lactam N-11), the Papp falls from 1.1 ×10⁻⁶ cm/s to 0.35 ×10⁻⁶ cm/s (3.1-fold).

`CCCCN1CC(=O)N(C)[C@@H](Cc2ccccc2)C(=O)N[C@@H](COCCCO)C(=O)N(C)[C@@H](CC(C)C)C(=O)N[C@@H]([C@@H](C)O)C(=O)N(CCCC)CC(=O)N(C)[C@@H](Cc2ccccc2)C(=O)N(C)[C@@H](C(C)C)C(=O)N[C@@H](COC(C)(C)C)C(=O)N(C)[C@@H](CC(C)C)C(=O)N[C@H](C(=O)N2CCCCC2)CC1=O` [AP95] ([NBuGly][NMeF]S(Propyl(3-OH))[NMeL]T[NBuGly][NMeF][NMeV]S(tBu)[NMeL]D-Piperidide; lactam N-11) and `CCCCN1CC(=O)N(C)[C@@H](C(C)C)C(=O)N[C@@H](COC(C)(C)C)C(=O)N(C)[C@@H](Cc2ccccc2)C(=O)N(C)[C@@H](CC(C)C)C(=O)N[C@H](C(=O)N2CCCCC2)CC(=O)N[C@H](C(C)C)C(=O)N(C)[C@@H](Cc2ccccc2)C(=O)N[C@@H](COCC[C@H](C)O)C(=O)N(C)[C@@H](CC(C)C)C(=O)N[C@@H]([C@@H](C)O)C1=O` [AP99] ([dV][NMeF]S(Butyl(3S-OH))[NMeL]T[NBuGly][NMeV]S(tBu)[NMeF][NMeL]D-Piperidide; lactam N-11) are within 1.5-fold of each other in Papp: 0.69 ×10⁻⁶ cm/s for the first, 0.86 ×10⁻⁶ cm/s for the second.

`CCCCN1CC(=O)N(C)[C@@H](Cc2cccc(Cl)c2)C(=O)N(C)[C@@H](CC(C)C)C(=O)N[C@@H](COCCCO)C(=O)N(C)[C@@H](CC(C)C)C(=O)N[C@H](C(=O)N2CCCCC2)CC(=O)N(C)CC(=O)N(C)[C@@H](Cc2ccccc2)C(=O)N[C@@H]([C@@H](C)CC)C(=O)N(C)[C@@H](CC(C)C)C(=O)N[C@@H]([C@@H](C)O)C1=O` [AP96] ([Sar][NMeF]I[NMeL]T[NBuGly][NMePhe(3-Cl)][NMeL]S(Propyl(3-OH))[NMeL]D-Piperidide; lactam N-11) and `CCCCN1CC(=O)N(C)[C@@H](CC(C)C)C(=O)N[C@@H](COCCCO)C(=O)N(C)[C@@H](Cc2cccc(Cl)c2)C(=O)N(C)[C@@H](CC(C)C)C(=O)N[C@H](C(=O)N2CCCCC2)CC(=O)N[C@H](C(C)C)C(=O)N(C)[C@@H](Cc2ccccc2)C(=O)N[C@@H](CC(C)C)C(=O)N(C)[C@@H](CC(C)C)C(=O)N[C@@H]([C@@H](C)O)C1=O` [AP98] ([dV][NMeF]L[NMeL]T[NBuGly][NMeL]S(Propyl(3-OH))[NMePhe(3-Cl)][NMeL]D-Piperidide; lactam N-11) are within 1.5-fold of each other in Papp: 0.17 ×10⁻⁶ cm/s for the first, 0.16 ×10⁻⁶ cm/s for the second.

`CC(C)C[C@H]1C(=O)N[C@@H]([C@@H](C)O)C(=O)N(C)[C@@H](CC(C)C)C(=O)N(C)[C@@H](CC(C)C)C(=O)N[C@H](C(=O)N2CCCCC2)CC(=O)N(C)CCCC(=O)N(C)[C@@H](C(C)C)C(=O)NC(COCC[C@H](C)O)C(=O)N(C)[C@@H](Cc2ccccc2)C(=O)N(C)[C@@H](Cc2cccc(Cl)c2)C(=O)N[C@@H](COC(C)(C)C)C(=O)N1C` (stereo partly drawn) [AP101] ([NMeGABA][NMeV][ξS](Butyl(3S-OH))[NMeF][NMePhe(3-Cl)]S(tBu)[NMeL]T[NMeL][NMeL]D-Piperidide; lactam N-11) and `CC(C)C[C@H]1C(=O)N[C@@H](C(C)C)C(=O)N(C)[C@@H](Cc2ccccc2)C(=O)N(C)[C@@H](Cc2cccc(Cl)c2)C(=O)NC(COCC[C@H](C)O)C(=O)N(C)[C@@H](CC(C)C)C(=O)N[C@@H]([C@@H](C)O)C(=O)N(C)[C@@H](CC(C)C)C(=O)N(C)[C@@H](CC(C)C)C(=O)N[C@H](C(=O)N2CCCCC2)CC(=O)N(C)CCCC(=O)N1C` (stereo partly drawn) [AP102] ([NMeGABA][NMeL]V[NMeF][NMePhe(3-Cl)][ξS](Butyl(3S-OH))[NMeL]T[NMeL][NMeL]D-Piperidide; lactam N-11) are within 1.5-fold of each other in Papp: 0.59 ×10⁻⁶ cm/s for the first, 0.43 ×10⁻⁶ cm/s for the second.

Compared with `CCCCN1CC(=O)N(C)[C@@H](CC(C)C)C(=O)N[C@H](C(=O)N2CCCCC2)CC(=O)N(C)[C@@H](C)C(=O)N[C@@H](COCC[C@H](C)O)C(=O)N(C)[C@@H](CC(C)C)C(=O)N(C)[C@@H](Cc2cccc(Cl)c2)C(=O)N[C@@H](CC(C)C)C(=O)N(C)[C@@H](Cc2ccccc2)C(=O)N(C)[C@@H](C(C)C)C(=O)N[C@@H]([C@@H](C)O)C1=O` [AP103] ([NMeA]S(Butyl(3S-OH))[NMeL][NMePhe(3-Cl)]L[NMeF][NMeV]T[NBuGly][NMeL]D-Piperidide; lactam N-11), `CCCCN1CC(=O)N(C)[C@@H](Cc2ccccc2)C(=O)N(C)[C@@H](C(C)C)C(=O)N[C@@H](COC(C)(C)C)C(=O)N(C)[C@@H](CC(C)C)C(=O)N[C@H](C(=O)N2CCCCC2)CC(=O)N(C)CC(=O)N(N)[C@@H](Cc2cccc(Cl)c2)C(=O)N[C@@H](COCC[C@H](C)O)C(=O)N(C)[C@@H](CC(C)C)C(=O)N[C@@H]([C@@H](C)O)C1=O` [AP105] ([Sar][X18]S(Butyl(3S-OH))[NMeL]T[NBuGly][NMeF][NMeV]S(tBu)[NMeL]D-Piperidide; lactam N-11) is 1.6-fold lower in Papp: 0.89 ×10⁻⁶ cm/s for the first, 0.55 ×10⁻⁶ cm/s for the second.

Reference: US20230096766A1, “AMINO ACID HAVING FUNCTIONAL GROUP CAPABLE OF INTERMOLECULAR HYDROGEN BONDING, PEPTIDE COMPOUND CONTAINING SAME AND METHOD FOR PRODUCTION THEREOF” (Chugai Seiyaku Kabushiki Kaisha, priority 2018, published 2023)
